According to US20240217990A1 (Gilead Sciences, Inc., priority 2021, published 2024):

Assays:
TLR7 = biological target: T1, TLR7 (Homo sapiens, UniProt Q9NYK1); experiment: TLR7 human PBMC cell-based assay (antagonist, GS-986 stimulated cytokine release); conditions: human PBMCs; TLR7 agonist GS-986 400 nM, 6 hours; cytokines (IL-6 and IFNα) in supernatant; read-out: TLR-7 EC50
T1 construct: Human peripheral blood mononuclear cells (PBMCs) consist of lymphocytes, monocytes and dendritic cells that express TLR7, TLR8 and TLR9; endogenous in cells; host or cells: cryopreserved human PBMCs from healthy donors
T1 sequence (Q9NYK1 27-1049): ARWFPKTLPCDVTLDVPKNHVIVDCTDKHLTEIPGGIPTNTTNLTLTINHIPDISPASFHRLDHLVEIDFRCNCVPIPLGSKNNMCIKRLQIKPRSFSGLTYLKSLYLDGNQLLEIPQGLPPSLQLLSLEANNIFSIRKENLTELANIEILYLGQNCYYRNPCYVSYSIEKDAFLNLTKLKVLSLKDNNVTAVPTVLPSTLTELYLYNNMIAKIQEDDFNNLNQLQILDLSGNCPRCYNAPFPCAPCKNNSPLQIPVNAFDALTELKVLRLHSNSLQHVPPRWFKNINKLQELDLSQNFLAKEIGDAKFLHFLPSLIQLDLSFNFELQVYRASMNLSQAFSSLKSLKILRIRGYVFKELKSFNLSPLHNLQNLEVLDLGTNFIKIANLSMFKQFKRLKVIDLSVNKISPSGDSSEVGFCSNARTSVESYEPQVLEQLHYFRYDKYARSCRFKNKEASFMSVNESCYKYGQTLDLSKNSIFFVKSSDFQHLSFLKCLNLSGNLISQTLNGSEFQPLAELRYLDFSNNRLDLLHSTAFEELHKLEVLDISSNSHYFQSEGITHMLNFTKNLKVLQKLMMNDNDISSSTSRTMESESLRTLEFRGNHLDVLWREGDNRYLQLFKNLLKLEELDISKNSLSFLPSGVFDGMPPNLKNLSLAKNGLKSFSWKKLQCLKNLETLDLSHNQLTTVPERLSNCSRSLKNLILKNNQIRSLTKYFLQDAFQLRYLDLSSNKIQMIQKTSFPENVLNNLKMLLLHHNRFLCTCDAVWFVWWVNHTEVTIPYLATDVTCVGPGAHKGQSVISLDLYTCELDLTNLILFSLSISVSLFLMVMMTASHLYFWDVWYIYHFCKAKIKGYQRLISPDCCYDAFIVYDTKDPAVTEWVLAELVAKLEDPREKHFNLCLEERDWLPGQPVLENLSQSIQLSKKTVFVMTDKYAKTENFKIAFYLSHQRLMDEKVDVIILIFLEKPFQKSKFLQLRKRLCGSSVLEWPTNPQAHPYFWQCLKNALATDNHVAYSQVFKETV
Method in brief: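 EC50 derived by sigmoidal fitting of IL-6 and IFNα levels, quantified by electrochemiluminescence in supernatants of human PBMCs given 400 nM GS-986 for 6 h. Cells (100,000/well in RPMI-1640, 10% FBS) had received test antagonist 1 h beforehand, 10 doses in quadruplicate, at 37 °C.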

TLR8 = biological target: T2, TLR8 (Homo sapiens, UniProt Q9NR97); experiment: TLR8 human PBMC cell-based assay (antagonist, Compound A stimulated cytokine release); conditions: human PBMCs; TLR8 agonist Compound A 800 nM, 6 hours; cytokines (TNFa and IL 12p40) in supernatant; read-out: TLR-8 EC50
T2 construct: Human peripheral blood mononuclear cells (PBMCs) consist of lymphocytes, monocytes and dendritic cells that express TLR7, TLR8 and TLR9; endogenous in cells; host or cells: cryopreserved human PBMCs from healthy donors
T2 sequence (Q9NR97 27-1041): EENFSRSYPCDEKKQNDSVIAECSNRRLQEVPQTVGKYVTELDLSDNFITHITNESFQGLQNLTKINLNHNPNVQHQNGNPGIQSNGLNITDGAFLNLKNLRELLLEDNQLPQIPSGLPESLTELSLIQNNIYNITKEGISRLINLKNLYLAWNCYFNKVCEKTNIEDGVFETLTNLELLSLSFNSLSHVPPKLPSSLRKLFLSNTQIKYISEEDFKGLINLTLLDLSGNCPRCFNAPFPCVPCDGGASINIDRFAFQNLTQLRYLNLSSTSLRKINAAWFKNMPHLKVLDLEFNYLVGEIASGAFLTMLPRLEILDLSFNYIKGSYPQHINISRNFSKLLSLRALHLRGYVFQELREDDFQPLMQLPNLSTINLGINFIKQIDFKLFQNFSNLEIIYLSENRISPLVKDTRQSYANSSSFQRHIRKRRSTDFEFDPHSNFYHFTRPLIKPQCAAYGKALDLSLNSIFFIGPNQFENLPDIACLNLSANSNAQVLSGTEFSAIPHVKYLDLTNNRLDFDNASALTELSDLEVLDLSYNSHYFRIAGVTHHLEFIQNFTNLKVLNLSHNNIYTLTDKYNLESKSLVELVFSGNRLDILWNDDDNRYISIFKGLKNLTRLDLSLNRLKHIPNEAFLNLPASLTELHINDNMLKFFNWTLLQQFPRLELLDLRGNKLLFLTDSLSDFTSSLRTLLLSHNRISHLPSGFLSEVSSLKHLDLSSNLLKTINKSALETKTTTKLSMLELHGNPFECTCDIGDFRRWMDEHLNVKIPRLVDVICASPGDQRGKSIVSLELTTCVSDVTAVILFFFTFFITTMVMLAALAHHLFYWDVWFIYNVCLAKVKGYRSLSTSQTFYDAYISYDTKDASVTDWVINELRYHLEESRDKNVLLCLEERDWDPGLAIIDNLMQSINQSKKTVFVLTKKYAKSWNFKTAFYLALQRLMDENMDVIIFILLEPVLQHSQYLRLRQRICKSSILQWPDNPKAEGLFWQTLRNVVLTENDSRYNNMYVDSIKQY
Method in brief: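 Cryopreserved donor PBMCs (100,000/well, RPMI + 10% FBS) were preincubated 1 h with antagonist (10-point dose response, quadruplicate), then stimulated with Compound A (800 nM final) for 6 h at 37 °C. TNFa and IL-12p40 in supernatants were measured by electrochemiluminescence; sigmoidal fits gave EC50.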

`Cc1cc(-c2[nH]c3cc(C(=O)N4C[C@@H](N)C[C@@H](C(F)(F)F)C4)sc3c2C(C)C)cn2ncnc12` [Example 77] gave an EC50 (TLR7) of 9 nM and an EC50 (TLR8) of 40.3 nM.
`Cc1cc(-c2[nH]c3cc(C4CCC5CN(CC(N)=O)CCC5C4)sc3c2C(C)C)cn2ncnc12` (stereo not shown) [Example 287] showed an EC50 (TLR7) of 0.56 nM and an EC50 (TLR8) of 5.31 nM.
For `Cc1cc(-c2[nH]c3cc(C4CC5CCCC(C4)N5)sc3c2C(C)C)cn2ncnc12` (stereo not shown) [Example 297], the EC50 (TLR7) was 2.74 nM and the EC50 (TLR8) was 19.5 nM.
For `Cc1cc(-c2[nH]c3cc(C4CCN(C(=O)CN(C)C)CC4)sc3c2C(C)C)cn2ncnc12` [Example 181], the EC50 (TLR7) was 1 nM and the EC50 (TLR8) was 7.7 nM.
For `Cc1cc(-c2[nH]c3cc(C(=O)N(CCN(C)C)C4CCCC4)sc3c2C(C)C)cn2ncnc12` [Example 98], the EC50 (TLR7) was 14.3 nM and the EC50 (TLR8) was 17.5 nM.
`Cc1cc(-c2[nH]c3cc(C4CCNCC4(C)C)sc3c2C(C)C)cn2ncnc12` (stereo not shown) [Example 293] showed an EC50 (TLR7) of 0.82 nM and an EC50 (TLR8) of 5.56 nM.
`Cc1cc(-c2[nH]c3cc(-c4nc(C5CCNCC5)no4)sc3c2C(C)C)cc(C)n1` [Example 55] was tested, and the EC50 (TLR7) was 7.6 nM and the EC50 (TLR8) was 14.9 nM.
In the case of `COc1cc(-c2[nH]c3cc(-c4cn(C5CCNCC5)nn4)sc3c2C(C)C)cn2ncnc12` [Example 232], the EC50 (TLR7) is reported as 0.7 nM and the EC50 (TLR8) is reported as 1.3 nM.
In the case of `Cc1cc(-c2[nH]c3cc(C(=O)N4CCC[C@H]4CN)sc3c2C(C)C)cn2ncnc12` [Example 145], the EC50 (TLR7) is reported as 3.8 nM and the EC50 (TLR8) is reported as 46.3 nM.
Work on `Cc1cc(-c2[nH]c3cc(C(=O)N4CCN[C@H](C)C4)sc3c2C(C)C)cn2ncnc12` [Example 128] yielded an EC50 (TLR7) of 1.1 nM and an EC50 (TLR8) of 0.8 nM.
With `Cc1cc(-c2[nH]c3cc(C(=O)N(C)C4CCC(N5CC(OC(F)(F)F)C5)CC4)sc3c2C(C)C)cn2ncnc12` (stereo not shown) [Example 251] the EC50 (TLR7) was 59.6 nM and the EC50 (TLR8) was 105 nM.
`Cc1cc(-c2[nH]c3cc(C(=O)N4CC[C@H](N)C4)sc3c2C(C)C)cc(C)n1` [Example 7] gave an EC50 (TLR7) of 110 nM and an EC50 (TLR8) of 35 nM.
With `Cc1cc(-c2[nH]c3cc(-c4ccc(N5CCNCC5)nc4)sc3c2C(C)C)cc(C)n1` [Example 51, 5-(2,6-dimethyl-4-pyridyl)-6-isopropyl-2-(6-piperazin-1-yl-3-pyridyl)-4F1-thieno[3,2-b]pyrrole] the EC50 (TLR7) was 20.9 nM and the EC50 (TLR8) was 61.4 nM.
In the case of `Cc1c(C(=O)N2CCNCC2)sc2c(C(C)C)c(-c3cc(C)c4ncnn4c3)[nH]c12` [Example 240, (6-isopropyl-3-methyl-5-(8-methyl-[1,2,4]triazolo[1,5-a]pyridin-6-yl)-4H-thieno[3,2-b]pyrrol-2-yl)(piperazin-1-yl)methanone], the EC50 (TLR7) is reported as 21 nM and the EC50 (TLR8) is reported as 301 nM.
Compound `Cc1cc(-c2[nH]c3cc(C(=O)N4CCN(CCO)CC4)sc3c2C(C)C)cn2ncnc12` [Example 69] has an EC50 (TLR7) of 24.4 nM and an EC50 (TLR8) of 9.2 nM.
Compound `Cc1cc(-c2[nH]c3cc(C(=O)N(C)[C@@H]4CNC[C@@H]4F)sc3c2C(C)C)cn2ncnc12` [Example 57] has an EC50 (TLR7) of 1.7 nM and an EC50 (TLR8) of 12.7 nM.
`Cc1cc(-c2[nH]c3cc(C(=O)N4C[C@H](C)NC[C@H]4C)sc3c2C(C)C)cn2ncnc12` [Example 124] showed an EC50 (TLR7) of 0.5 nM and an EC50 (TLR8) of 1.7 nM.
With `Cc1cc(-c2[nH]c3cc(C(=O)N(C)C4CCN(CC(N)=O)CC4)sc3c2C(C)C)cn2ncnc12` [Example 178] the EC50 (TLR7) was 1.3 nM and the EC50 (TLR8) was 17.4 nM.
For `Cc1c(-c2[nH]c3cc(C(=O)N(C)C4CCN(CCO)CC4)sc3c2C(C)C)cn2ncnc2c1C` [Example 192], the EC50 (TLR7) was 1.2 nM and the EC50 (TLR8) was 0.5 nM.
`Cc1c(C(=O)N2CCC[C@@H]3NCC[C@@H]32)sc2c(C(C)C)c(-c3cc(C)c4ncnn4c3)[nH]c12` [Example 243] was tested, and the EC50 (TLR7) was 52.4 nM and the EC50 (TLR8) was 82.9 nM.
Compound `Cc1cc(-c2[nH]c3cc(C(=O)N(C)C4CCN(CCO)CC4)sc3c2C(C)C)cn2ncnc12` [Example 141] has an EC50 (TLR7) of 1.3 nM and an EC50 (TLR8) of 2.7 nM.
In the case of `Cc1cc(-c2[nH]c3cc(C(=O)N4CCCC(CN)C4)sc3c2C(C)C)cn2ncnc12` (stereo not shown) [Example 111], the EC50 (TLR7) is reported as 1.5 nM and the EC50 (TLR8) is reported as 7.2 nM.
`Cc1cc(-c2[nH]c3cc(C(=O)N(C)C4CCC(N5CC6(COC6)C5)CC4)sc3c2C(C)C)cn2ncnc12` (stereo not shown) [Example 253] gave an EC50 (TLR7) of 7.5 nM and an EC50 (TLR8) of 8.5 nM.
